In patent publication US9580465B2, “Tissue protective peptides and peptide analogs for preventing and treating diseases and disorders associated with tissue damage” (ARAIM PHARMACEUTICALS, INC., priority 2008, dated 2017):
Entries after “also recorded” stand apart in the source; their conditions may differ. Square brackets hold non-standard residues; d marks the D form. pGlu = O=C1CC[C@@H](C(=O)O)N1

Legend:
[1] = test system: total body gamma radiation; assay: Radiomitigating activity in hematopoietic screening assay; format: in vivo, C57BL/6 mice; details: for survival at day 30: 30 ug/kg subcutaneously from 24 hrs after irradiation, daily for 29 days
Description: The ability of peptides useful in the current therapeutic method to mitigate the effects of a radioactive agent on the hematopoietic system was evaluated in a murine model of radiation injury. Briefly, 80 C57BL/6 mice (50% female and 50% male, 15-28 gm) were used in the study were divided into two groups.
In both groups the radiation was administered to the mice as a single uniform total body dose of gamma radiation from a ^137Cs radiation source (GammaCell 40; Nordion International, Kanata, Ontario, Canada) at an exposure rate of 65-69 cGy/minute+/−2.5 cGy.
Group A received a LD70/30 dose of radiation (796 cGy) and then 20 of the mice were administered Peptide ID (30 ug/kg subcutaneously) at 24 hrs after irradiation and then once a day for 29 days. The remaining 20 mice (control group) received PBS (subcutaneously) at 24 hrs after irradiation and then once a day for 29 days.
The remaining 20 mice (control group) received PBS (subcutaneously) at 24 hrs after irradiation and then once a day for 29 days.
The mice were monitored for survival once a day until signs of early euthanasia appeared, then twice/day until day 30.

bilateral renal ischemia = assay: Bilateral renal ischemia assay; format: in vivo, C57/BL6 mice
Description: Sixty male C57/BL6 mice (˜25 g; Charles River Laboratories) were anesthetized with ketamine (150 mg/kg) and xylazine (15 mg/kg) i.p. Each animal was placed on a homeothermic blanket set at 37° C., and after a mid-line laparotomy, the renal pedicles were clamped for 30 minutes using nontraumatic vascular clamps. Peptide ID was administered at the indicated dose via i.p. Injection at 1 minute, 6 hours, and 12 hours after reperfusion. In a single dose study, the mice received a control (PBS), 1 μg/kg of Peptide IG at 1 minute, 1 μg/kg of Peptide IG at 30 minutes, 1 μg/kg of Peptide ID at 6 hours, or 10 μg/kg of Peptide ID at 6 hours (12 mice per group). In a multiple dose study, the mice received either multiple doses of a control (PBS), 0.1 μg/kg of Peptide ID, 1 μg/kg of Peptide ID, or 10 μg/kg of Peptide ID at 1 minute, 6 hours and 12 hours into reperfusion.
Twenty-four hours later, mice were reanesthetized and blood was obtained by cardiac puncture. Plasma urea and creatine were used as indicators of renal dysfunction and aspartate aminotransferase was used as an indicator of renal injury. Data were analyzed using ANOVA followed by Dunnett's post hoc test comparison.

[2] = test system: partial body irradiation of 15 Gy; assay: Radiomitigating activity in a gastrointestinal screening assay; format: in vivo, C57BL/6 mice; details: 15 mice per group, 30 ug/kg subcutaneously from 24 hours, once a day, FIG. 22
Description: The ability of peptides useful in the current therapeutic method to mitigate the effects of a radioactive agent on the gastrointestinal system was evaluated in a murine model of radiation injury. Briefly, 30 C57BL/6 mice (male, 20-30 gm) were used in the study.
The radiation was administered to the mice using a Pantak HF320 X-ray (Agfa NDT Ltd., Reading, UK), operated at 300 kV, 10 mA. The X-ray tube has additional filtration to give a radiation quality of 2.3 mm Cu half-value layer (HVL). Mice had their head, thorax, and forelimbs shielded to protect their bone marrow and select for the GI response. The mice were restrained in a jig and positioned at a distance of 700 mm focus from the focus of the X-ray tube. Irradiation was delivered at a dose rate of 75.5 cGy/min (unshielded) and 70.0 cGy/min (shielded) for a period sufficient to expose the mice to 15 Gy of radiation.
At 24 hours following radiation, 15 of the mice were administered Peptide ID (30 ug/kg subcutaneously) and then once a day for the duration of the study and remaining 15 mice (control group) received PBS (subcutaneously) and then once a day for the duration of the study.
The mice were weighed and monitored once a day until signs of diarrhea and early euthanasia appeared, then twice a day.

[3] = Erythropoietic and hematopoietic effects, 28 days i.v. in rabbits; format: in vivo, New Zealand White rabbits; details: 30, 90, 300 μg/kg per dose i.v. twice daily for 28 days, baseline vs. day 29
Description: Further the erythropoietic and hematopoietic affects of Peptide ID were evaluated in rabbits. Blood samples were taken of all rabbits prior to the initiation of the study to establish the hematological baseline for the animals. Peptide ID was administered twice daily i.v. to New Zealand White rabbits for 28 days. For this study, six males and females were assigned to groups 1 and 4, and four males and four females were assigned to groups 2 and 3. Group 1 received 0, group 2 received 30 μg (24 nmol/kg bw), group 3 received 90 μg/kg (72 nmol/kg bw); and group 4 received 300 μg/kg (240 nmol/kg bw) per dose Peptide ID in PBS by bolus i.v. administration. Blood samples to assay for hematological variables were collected on day 29.

[4] = test system: recall of previously experienced objects; assay: Novel object recognition paradigm; format: in vivo, Wistar rats
Description: A novel object recognition paradigm in rats was used to evaluate their recall of previously experienced objects. Specifically, adult Wistar rats were exposed to novel test objects and then reexposed to them 24 hours later. Animals were divided into 5 groups receiving either: (1) vehicle, (2) galantamine (3 mg/kg i.p.) 1 hr before testing as a positive control, (3) Peptide ID (24 nmol/kg bw i.p.) 3 hours after the first exposure to the novel objects, (4) Peptide ID (24 nmol/kg bw i.p.) twice daily for 5 days before training and continued through the day immediately after training, and (5) Peptide ID (24 nmol/kg bw i.p.) 1 hour before first exposure to the novel object.

pressure ulcer = assay: Decubitus ulcer (pressure sore) assay; format: in vivo, Sprauge-Dawley rats; details: FIG. 20
Description: A decubitus ulcer (pressure sore) assay was performed on 24 adult Sprauge-Dawley rats in accordance with the disclosure of Pierce et al., Selective A2A adenosine receptor activation reduces skin pressure ulcer formation and inflammation, Am J Physiol Heart Circ Physiol 281:67-74, 2001. Briefly, a ferromagnetic steel plate was implanted under a dorsal region of the rats skin. A rectangular permanent magnet was applied to the area of the skin under which the plate was implanted in order to compress the skin between the plate and the magnet. This compression reduced the flow of blood to the skin causing ischemia. The rats were subjected to a cycle of ischemia-reperfusion (2 hours ischemia with a 0.5 hour reperfusion) for a 72-hour period. […] Daily the area of the wound on each rat was measured for a period of 12 days.

Sequence: UEQLERALNSS ([pGlu]EQLERALNSS-OH; also: acetate/ammonium mixed salt) [Peptide ID, first glutamine replaced with pyroglutamate]
- survival at day 30 ([1]; 796 cGy (LD70/30), FIG. 21A): 45%
- thirty-day survival and overall survival time versus PBS ([1]; 796 cGy and 831 cGy, 30 ug/kg subcutaneously daily): significantly increased the overall survival time
- survival at day 30 ([1]; 831 cGy (LD90/30), FIG. 21B): 20%
- creatinine, urea and aspartate aminotransferase (biochemical markers of renal dysfunction) (bilateral renal ischemia; multiple doses 1 μg/kg at 1 minute, 6 hours and 12 hours into reperfusion, FIG. 7): reduction in these biochemical markers of renal dysfunction
- creatinine, urea and aspartate aminotransferase (biochemical markers of renal dysfunction) (bilateral renal ischemia; multiple doses 10 μg/kg at 1 minute, 6 hours and 12 hours into reperfusion, FIG. 7): reduction in these biochemical markers of renal dysfunction
- creatinine, urea and aspartate aminotransferase (biochemical markers of renal dysfunction) (bilateral renal ischemia; single dose 1 μg/kg at 6 hours into reperfusion, 24 hrs of reperfusion, FIG. 6): reduction in these biochemical markers of renal dysfunction
- creatinine, urea and aspartate aminotransferase (biochemical markers of renal dysfunction) (bilateral renal ischemia; single dose 10 μg/kg at 6 hours into reperfusion, 24 hrs of reperfusion, FIG. 6): reduction in these biochemical markers of renal dysfunction
- number of mice surviving to day 20 [2]: 6 mice
- hemoglobin concentration ([3]; FIG. 3A): no difference; also recorded: no effect
- hematocrit ([3]; FIG. 3B): no difference; also recorded: no effect
- platelet count ([3]; FIG. 3C): no difference; also recorded: no effect
- recognition of the novel objects ([4]; galantamine 3 mg/kg of bw, Peptide ID 24 nmol/kg of bw at various time points, FIG. 9): increased the rats recognition of the novel objects
- recognition of the novel objects ([4]; group 3: 24 nmol/kg bw i.p. 3 hours after the first exposure to the novel objects): improved recognition of the novel objects
- recognition of the novel objects ([4]; group 4: 24 nmol/kg bw i.p. twice daily for 5 days before training and through the day after training): improved recognition of the novel objects
- wound (ulcer) size (area) (pressure ulcer; 30 μg/kg sc daily, compared with all groups): smallest wound size
- wound (ulcer) size (area) (pressure ulcer; Peptide ID 30 μg/kg sc twice or daily, EPO daily, 12 days, versus saline): reduced the size of the wound; also recorded: better wound healing
